Measured values reported in the supplement of paper PMC10307832.

Assays:
Assay in all cases: relative viability (nuclei count vs DMSO), 5 days (fraction); higher = more cells survive
LC-2-ad = tested on: LC-2-ad
How it was run: (§1)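 Cells from lung cancer lines were seeded into 1536-well plates and, one day later, dosed by pin tool. Treatments were either a single drug or a fixed dose of an anchor drug with five library-drug doses (not always all listed) in √10 steps. After 5 days, nuclei were stained in a one-step fixation (final 0.05% Triton X-100, 1% formaldehyde, 1 ug/ml Hoechst) and counted on 4× images, and relative viability is the treated-to-vehicle nuclei ratio, as the median of duplicate plates.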

NCI-H522 = tested on: NCI-H522
How it was run: as §1

NCI-H358 = tested on: NCI-H358
How it was run: as §1

RERF-LC-KJ = tested on: RERF-LC-KJ
How it was run: as §1

NCI-H647 = tested on: NCI-H647
How it was run: as §1

NCI-H1915 = tested on: NCI-H1915
How it was run: as §1

HCC-15 = tested on: HCC-15
How it was run: as §1

NCI-H1755 = tested on: NCI-H1755
How it was run: as §1

HCC-78 = tested on: HCC-78
How it was run: as §1

NCI-H460 = tested on: NCI-H460
How it was run: as §1

NCI-H1975 = tested on: NCI-H1975
How it was run: as §1

A-427 = tested on: A-427
How it was run: as §1

PC-3 [JPC-3] = tested on: PC-3 [JPC-3]
How it was run: as §1

NCI-H2342 = tested on: NCI-H2342
How it was run: as §1

LOU-NH91 = tested on: LOU-NH91
How it was run: as §1

NCI-H1734 = tested on: NCI-H1734
How it was run: as §1

LXF-289 = tested on: LXF-289
How it was run: as §1

NCI-H1792 = tested on: NCI-H1792
How it was run: as §1

HOP-62 = tested on: HOP-62
How it was run: as §1

NCI-H2347 = tested on: NCI-H2347
How it was run: as §1

NCI-H2126 = tested on: NCI-H2126
How it was run: as §1

## Clc1ccc(Nc2nnc(Cc3ccncc3)c3ccccc23)cc1 [Vatalanib] + NC(=O)Nc1cc(-c2cccc(F)c2)sc1C(=O)N[C@H]1CCCNC1 [AZD7762] (partner 0.2 µM)
LC-2-ad; first compound 0.04 µM
  relative viability: 0.897
LC-2-ad; first compound 0.1265 µM
  relative viability: 0.762
LC-2-ad; first compound 0.4 µM
  relative viability: 0.92
LC-2-ad; first compound 1.265 µM
  relative viability: 0.785
LC-2-ad; first compound 4 µM
  relative viability: 0.817
NCI-H522; first compound 0.04 µM
  relative viability: 0.848
NCI-H522; first compound 0.1265 µM
  relative viability: 0.794
NCI-H522; first compound 0.4 µM
  relative viability: 0.777
NCI-H522; first compound 1.265 µM
  relative viability: 0.74
NCI-H522; first compound 4 µM
  relative viability: 0.808
NCI-H358; first compound 0.04 µM
  relative viability: 0.694
NCI-H358; first compound 0.1265 µM
  relative viability: 0.441
NCI-H358; first compound 0.4 µM
  relative viability: 0.57
NCI-H358; first compound 1.265 µM
  relative viability: 0.446
NCI-H358; first compound 4 µM
  relative viability: 0.481
RERF-LC-KJ; first compound 0.04 µM
  relative viability: 1.16
RERF-LC-KJ; first compound 0.1265 µM
  relative viability: 0.919
RERF-LC-KJ; first compound 0.4 µM
  relative viability: 1.05
RERF-LC-KJ; first compound 1.265 µM
  relative viability: 0.711
RERF-LC-KJ; first compound 4 µM
  relative viability: 0.749
NCI-H647; first compound 0.04 µM
  relative viability: 0.489
NCI-H647; first compound 0.1265 µM
  relative viability: 0.45
NCI-H647; first compound 0.4 µM
  relative viability: 0.395
NCI-H647; first compound 1.265 µM
  relative viability: 0.391
NCI-H647; first compound 4 µM
  relative viability: 0.46
NCI-H1915; first compound 0.04 µM
  relative viability: 0.717
NCI-H1915; first compound 0.1265 µM
  relative viability: 0.665
NCI-H1915; first compound 0.4 µM
  relative viability: 0.716
NCI-H1915; first compound 1.265 µM
  relative viability: 0.653
NCI-H1915; first compound 4 µM
  relative viability: 0.661
HCC-15; first compound 0.04 µM
  relative viability: 1.18
HCC-15; first compound 0.1265 µM
  relative viability: 1.23
HCC-15; first compound 0.4 µM
  relative viability: 1.13
HCC-15; first compound 1.265 µM
  relative viability: 1.32
HCC-15; first compound 4 µM
  relative viability: 1.54
NCI-H1755; first compound 0.04 µM
  relative viability: 0.451
NCI-H1755; first compound 0.1265 µM
  relative viability: 0.406
NCI-H1755; first compound 0.4 µM
  relative viability: 0.489
NCI-H1755; first compound 1.265 µM
  relative viability: 0.418
NCI-H1755; first compound 4 µM
  relative viability: 0.419
HCC-78; first compound 0.04 µM
  relative viability: 0.566
HCC-78; first compound 0.1265 µM
  relative viability: 0.633
HCC-78; first compound 0.4 µM
  relative viability: 0.59
HCC-78; first compound 1.265 µM
  relative viability: 0.562
HCC-78; first compound 4 µM
  relative viability: 0.547
NCI-H460; first compound 0.04 µM
  relative viability: 0.589
NCI-H460; first compound 0.1265 µM
  relative viability: 0.646
NCI-H460; first compound 1.265 µM
  relative viability: 0.477
NCI-H460; first compound 4 µM
  relative viability: 0.596
NCI-H1975; first compound 0.04 µM
  relative viability: 0.731
NCI-H1975; first compound 0.1265 µM
  relative viability: 0.66
NCI-H1975; first compound 0.4 µM
  relative viability: 0.59
NCI-H1975; first compound 1.265 µM
  relative viability: 0.492
NCI-H1975; first compound 4 µM
  relative viability: 0.568
A-427; first compound 0.04 µM
  relative viability: 0.797
A-427; first compound 0.1265 µM
  relative viability: 0.736
A-427; first compound 0.4 µM
  relative viability: 0.761
A-427; first compound 4 µM
  relative viability: 0.64
PC-3 [JPC-3]; first compound 0.04 µM
  relative viability: 0.81
PC-3 [JPC-3]; first compound 0.1265 µM
  relative viability: 0.751
PC-3 [JPC-3]; first compound 0.4 µM
  relative viability: 0.674
PC-3 [JPC-3]; first compound 1.265 µM
  relative viability: 0.705
PC-3 [JPC-3]; first compound 4 µM
  relative viability: 0.728
NCI-H2342; first compound 0.04 µM
  relative viability: 0.453
NCI-H2342; first compound 0.1265 µM
  relative viability: 0.537
NCI-H2342; first compound 0.4 µM
  relative viability: 0.378
NCI-H2342; first compound 1.265 µM
  relative viability: 0.484
NCI-H2342; first compound 4 µM
  relative viability: 0.45
LOU-NH91; first compound 0.04 µM
  relative viability: 0.786
LOU-NH91; first compound 0.1265 µM
  relative viability: 0.691
LOU-NH91; first compound 0.4 µM
  relative viability: 0.756
LOU-NH91; first compound 1.265 µM
  relative viability: 0.708
LOU-NH91; first compound 4 µM
  relative viability: 0.686
NCI-H1734; first compound 0.04 µM
  relative viability: 0.534
NCI-H1734; first compound 0.1265 µM
  relative viability: 0.484
NCI-H1734; first compound 0.4 µM
  relative viability: 0.537
NCI-H1734; first compound 1.265 µM
  relative viability: 0.536
NCI-H1734; first compound 4 µM
  relative viability: 0.528
LXF-289; first compound 0.04 µM
  relative viability: 1.14
LXF-289; first compound 0.1265 µM
  relative viability: 0.97
LXF-289; first compound 0.4 µM
  relative viability: 1.21
LXF-289; first compound 1.265 µM
  relative viability: 1.01
LXF-289; first compound 4 µM
  relative viability: 1.03
NCI-H1792; first compound 0.04 µM
  relative viability: 0.723
NCI-H1792; first compound 0.1265 µM
  relative viability: 0.663
NCI-H1792; first compound 0.4 µM
  relative viability: 0.728
NCI-H1792; first compound 1.265 µM
  relative viability: 0.503
NCI-H1792; first compound 4 µM
  relative viability: 0.581
HOP-62; first compound 0.04 µM
  relative viability: 0.792
HOP-62; first compound 0.1265 µM
  relative viability: 0.618
HOP-62; first compound 0.4 µM
  relative viability: 0.603
HOP-62; first compound 1.265 µM
  relative viability: 0.695
HOP-62; first compound 4 µM
  relative viability: 0.681
NCI-H2347; first compound 0.04 µM
  relative viability: 0.776
NCI-H2347; first compound 0.1265 µM
  relative viability: 0.932
NCI-H2347; first compound 0.4 µM
  relative viability: 0.901
NCI-H2347; first compound 1.265 µM
  relative viability: 0.521
NCI-H2347; first compound 4 µM
  relative viability: 0.769
NCI-H2126; first compound 0.04 µM
  relative viability: 0.994
NCI-H2126; first compound 0.1265 µM
  relative viability: 0.99
NCI-H2126; first compound 0.4 µM
  relative viability: 1.02
NCI-H2126; first compound 1.265 µM
  relative viability: 0.995
NCI-H2126; first compound 4 µM
  relative viability: 1.07
